From the kinase profiling compilation of Christmann-Franck et al. (2016)

Legend:
Test in all cases: Free Choice Kinase Assay Projects, Flashplate
AKT1 (human) = AKT1 (human) (UniProt P31749); settings: compound 10.0 µM; ATP 3 µM
AURKA (human) = AURKA (human) (UniProt O14965); settings: compound 10.0 µM; ATP 10 µM
AURKB (human) = AURKB (human) (UniProt Q96GD4); settings: compound 10.0 µM; ATP 10 µM
AXL (human) = AXL (human) (UniProt P30530); settings: compound 10.0 µM; ATP 0.3 µM
CDK2 CCNA2 (human) = CDK2 CCNA2 (human) (UniProt P24941+P20248); settings: compound 10.0 µM; ATP 0.3 µM
CDK4 CCND1 (human) = CDK4 CCND1 (human) (UniProt P11802+P24385); settings: compound 10.0 µM; ATP 3 µM
CSNK2A1 (human) = CSNK2A1 (human) (UniProt P68400); settings: compound 10.0 µM; ATP 0.1 µM
EGFR (human) = EGFR (human) (UniProt P00533); settings: compound 10.0 µM; ATP 0.3 µM
EPHB4 (human) = EPHB4 (human) (UniProt P54760); settings: compound 10.0 µM; ATP 1 µM
ERBB2 (human) = ERBB2 (human) (UniProt P04626); settings: compound 10.0 µM; ATP 1 µM
IGF1R (human) = IGF1R (human) (UniProt P08069); settings: compound 10.0 µM; ATP 1 µM
KDR (human) = KDR (human) (UniProt P35968); settings: compound 10.0 µM; ATP 1 µM
MAP3K8 (human) = MAP3K8 (human) (UniProt P41279); settings: compound 10.0 µM; ATP 3 µM
MAPK10 (human) = MAPK10 (human) (UniProt P53779); settings: compound 10.0 µM; ATP 0.3 µM
MAPK14 (human) = MAPK14 (human) (UniProt Q16539); settings: compound 10.0 µM; ATP 1 µM
MET (human) = MET (human) (UniProt P08581); settings: compound 10.0 µM; ATP 0.3 µM
NUAK1 (human) = NUAK1 (human) (UniProt O60285); settings: compound 10.0 µM; ATP 1 µM
PDGFRB (human) = PDGFRB (human) (UniProt P09619); settings: compound 10.0 µM; ATP 0.3 µM
PLK1 (human) = PLK1 (human) (UniProt P53350); settings: compound 10.0 µM; ATP 1 µM
PLK4 (human) = PLK4 (human) (UniProt O00444); settings: compound 10.0 µM; ATP 0.3 µM
PTK2 (human) = PTK2 (human) (UniProt Q05397); settings: compound 10.0 µM; ATP 1 µM
SRC (human) = SRC (human) (UniProt P12931); settings: compound 10.0 µM; ATP 0.3 µM
TEK (human) = TEK (human) (UniProt Q02763); settings: compound 10.0 µM; ATP 1 µM
TEK (human), sequence (Q02763 whole entry, looked up): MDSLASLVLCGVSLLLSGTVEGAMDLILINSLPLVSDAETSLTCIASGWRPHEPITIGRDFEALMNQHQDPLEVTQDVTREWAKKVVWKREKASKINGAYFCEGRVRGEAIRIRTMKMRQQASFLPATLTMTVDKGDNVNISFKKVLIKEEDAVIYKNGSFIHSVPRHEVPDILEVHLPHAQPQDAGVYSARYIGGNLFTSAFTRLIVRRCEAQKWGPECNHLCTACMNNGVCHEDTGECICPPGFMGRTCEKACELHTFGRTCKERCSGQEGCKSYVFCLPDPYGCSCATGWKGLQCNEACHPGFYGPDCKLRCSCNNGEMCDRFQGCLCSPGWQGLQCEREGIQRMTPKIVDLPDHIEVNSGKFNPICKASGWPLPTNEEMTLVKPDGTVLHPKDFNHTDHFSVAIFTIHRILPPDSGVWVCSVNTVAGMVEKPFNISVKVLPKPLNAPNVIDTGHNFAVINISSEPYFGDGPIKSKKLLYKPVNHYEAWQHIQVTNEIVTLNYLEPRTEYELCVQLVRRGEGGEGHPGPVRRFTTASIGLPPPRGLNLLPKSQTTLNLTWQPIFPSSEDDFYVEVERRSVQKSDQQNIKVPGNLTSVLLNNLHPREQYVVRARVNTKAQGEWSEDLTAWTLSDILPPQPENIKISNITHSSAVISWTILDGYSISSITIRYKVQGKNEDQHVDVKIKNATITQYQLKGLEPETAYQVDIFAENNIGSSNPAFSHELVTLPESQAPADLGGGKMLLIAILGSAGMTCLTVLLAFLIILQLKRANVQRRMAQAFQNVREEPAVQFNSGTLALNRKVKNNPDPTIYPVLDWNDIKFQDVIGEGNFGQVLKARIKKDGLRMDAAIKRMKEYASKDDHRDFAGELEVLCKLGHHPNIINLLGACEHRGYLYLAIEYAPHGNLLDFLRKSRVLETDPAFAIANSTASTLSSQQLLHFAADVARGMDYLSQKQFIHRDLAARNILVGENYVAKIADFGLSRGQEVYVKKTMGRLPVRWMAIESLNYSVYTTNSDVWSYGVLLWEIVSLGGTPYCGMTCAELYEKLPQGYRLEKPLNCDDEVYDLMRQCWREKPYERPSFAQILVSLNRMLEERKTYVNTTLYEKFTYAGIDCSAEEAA

PLK4 (human), sequence (O00444 whole entry, looked up): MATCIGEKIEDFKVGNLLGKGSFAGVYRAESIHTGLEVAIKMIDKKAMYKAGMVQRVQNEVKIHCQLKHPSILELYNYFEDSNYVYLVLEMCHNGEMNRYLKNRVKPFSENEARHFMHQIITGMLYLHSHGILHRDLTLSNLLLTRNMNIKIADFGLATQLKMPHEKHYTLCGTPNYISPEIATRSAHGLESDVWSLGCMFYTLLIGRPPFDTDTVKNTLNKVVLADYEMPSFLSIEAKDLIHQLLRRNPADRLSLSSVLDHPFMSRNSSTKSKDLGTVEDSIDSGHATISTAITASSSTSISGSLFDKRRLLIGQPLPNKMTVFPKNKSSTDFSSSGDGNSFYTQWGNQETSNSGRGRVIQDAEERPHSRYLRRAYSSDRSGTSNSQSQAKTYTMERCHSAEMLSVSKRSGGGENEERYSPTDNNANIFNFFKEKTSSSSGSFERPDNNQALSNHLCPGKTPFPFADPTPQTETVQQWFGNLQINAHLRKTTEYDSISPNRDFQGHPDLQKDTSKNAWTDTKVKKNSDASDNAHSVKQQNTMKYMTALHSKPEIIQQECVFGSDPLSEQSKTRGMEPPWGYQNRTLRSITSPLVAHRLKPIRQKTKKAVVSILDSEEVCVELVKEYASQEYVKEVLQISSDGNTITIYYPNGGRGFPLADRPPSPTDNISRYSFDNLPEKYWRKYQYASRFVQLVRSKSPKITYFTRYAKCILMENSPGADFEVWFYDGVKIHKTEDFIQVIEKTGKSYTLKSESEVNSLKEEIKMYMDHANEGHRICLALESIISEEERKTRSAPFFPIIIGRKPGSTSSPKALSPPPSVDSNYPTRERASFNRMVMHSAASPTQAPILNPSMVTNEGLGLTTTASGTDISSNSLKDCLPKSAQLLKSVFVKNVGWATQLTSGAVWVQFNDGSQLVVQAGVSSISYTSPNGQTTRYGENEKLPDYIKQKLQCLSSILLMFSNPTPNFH
CSNK2A1 (human), sequence (P68400 whole entry, looked up): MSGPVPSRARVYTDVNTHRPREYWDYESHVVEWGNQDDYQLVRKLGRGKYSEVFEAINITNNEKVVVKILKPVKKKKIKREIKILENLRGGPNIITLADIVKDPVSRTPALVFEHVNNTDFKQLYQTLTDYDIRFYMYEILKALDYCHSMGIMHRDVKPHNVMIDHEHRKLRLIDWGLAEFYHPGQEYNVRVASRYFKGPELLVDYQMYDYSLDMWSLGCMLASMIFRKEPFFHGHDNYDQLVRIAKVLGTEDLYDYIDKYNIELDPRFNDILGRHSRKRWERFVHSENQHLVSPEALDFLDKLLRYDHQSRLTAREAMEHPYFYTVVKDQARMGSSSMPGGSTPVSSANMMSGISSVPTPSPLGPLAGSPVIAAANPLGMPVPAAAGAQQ
NUAK1 (human), sequence (O60285 whole entry, looked up): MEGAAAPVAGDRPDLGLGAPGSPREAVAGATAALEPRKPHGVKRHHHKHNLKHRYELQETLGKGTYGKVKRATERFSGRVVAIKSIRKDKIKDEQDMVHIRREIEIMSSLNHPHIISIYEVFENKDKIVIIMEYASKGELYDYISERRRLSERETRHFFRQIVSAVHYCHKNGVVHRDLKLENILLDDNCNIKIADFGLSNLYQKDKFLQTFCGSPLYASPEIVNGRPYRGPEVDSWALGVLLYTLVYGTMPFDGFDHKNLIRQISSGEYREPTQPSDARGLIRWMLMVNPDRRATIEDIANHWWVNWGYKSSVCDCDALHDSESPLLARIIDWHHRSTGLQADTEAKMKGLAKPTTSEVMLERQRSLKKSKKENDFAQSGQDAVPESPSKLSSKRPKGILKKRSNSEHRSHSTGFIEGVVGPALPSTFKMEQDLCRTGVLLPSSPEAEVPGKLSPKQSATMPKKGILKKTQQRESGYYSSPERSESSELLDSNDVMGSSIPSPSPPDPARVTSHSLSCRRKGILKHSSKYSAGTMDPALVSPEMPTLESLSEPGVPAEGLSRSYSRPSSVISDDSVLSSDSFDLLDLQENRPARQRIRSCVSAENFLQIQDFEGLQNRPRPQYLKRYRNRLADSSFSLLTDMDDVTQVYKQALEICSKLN
AXL (human), sequence (P30530 whole entry, looked up): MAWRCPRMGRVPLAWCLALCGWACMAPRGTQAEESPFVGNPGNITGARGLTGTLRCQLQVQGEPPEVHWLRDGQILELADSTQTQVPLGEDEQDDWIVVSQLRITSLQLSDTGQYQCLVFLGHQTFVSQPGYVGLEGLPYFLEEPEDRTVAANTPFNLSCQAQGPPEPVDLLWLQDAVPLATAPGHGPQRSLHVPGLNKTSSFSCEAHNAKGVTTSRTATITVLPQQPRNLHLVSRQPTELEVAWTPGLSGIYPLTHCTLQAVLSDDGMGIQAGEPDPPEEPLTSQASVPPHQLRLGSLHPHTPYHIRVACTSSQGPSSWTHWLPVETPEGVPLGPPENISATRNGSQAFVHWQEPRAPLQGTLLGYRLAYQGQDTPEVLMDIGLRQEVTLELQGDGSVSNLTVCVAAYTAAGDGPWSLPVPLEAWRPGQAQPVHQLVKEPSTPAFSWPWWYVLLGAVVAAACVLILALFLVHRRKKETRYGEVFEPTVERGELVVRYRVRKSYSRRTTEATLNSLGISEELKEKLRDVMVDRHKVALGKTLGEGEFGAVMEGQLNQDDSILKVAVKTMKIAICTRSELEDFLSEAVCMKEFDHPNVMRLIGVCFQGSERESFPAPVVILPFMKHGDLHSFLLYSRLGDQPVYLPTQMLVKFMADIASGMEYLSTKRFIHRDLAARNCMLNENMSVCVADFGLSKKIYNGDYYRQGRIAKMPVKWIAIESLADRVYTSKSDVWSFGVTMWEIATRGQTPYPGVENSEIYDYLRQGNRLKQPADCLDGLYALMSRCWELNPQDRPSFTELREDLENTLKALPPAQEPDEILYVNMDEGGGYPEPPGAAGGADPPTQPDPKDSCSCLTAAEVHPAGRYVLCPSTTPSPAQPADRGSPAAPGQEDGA
PTK2 (human), sequence (Q05397 whole entry, looked up): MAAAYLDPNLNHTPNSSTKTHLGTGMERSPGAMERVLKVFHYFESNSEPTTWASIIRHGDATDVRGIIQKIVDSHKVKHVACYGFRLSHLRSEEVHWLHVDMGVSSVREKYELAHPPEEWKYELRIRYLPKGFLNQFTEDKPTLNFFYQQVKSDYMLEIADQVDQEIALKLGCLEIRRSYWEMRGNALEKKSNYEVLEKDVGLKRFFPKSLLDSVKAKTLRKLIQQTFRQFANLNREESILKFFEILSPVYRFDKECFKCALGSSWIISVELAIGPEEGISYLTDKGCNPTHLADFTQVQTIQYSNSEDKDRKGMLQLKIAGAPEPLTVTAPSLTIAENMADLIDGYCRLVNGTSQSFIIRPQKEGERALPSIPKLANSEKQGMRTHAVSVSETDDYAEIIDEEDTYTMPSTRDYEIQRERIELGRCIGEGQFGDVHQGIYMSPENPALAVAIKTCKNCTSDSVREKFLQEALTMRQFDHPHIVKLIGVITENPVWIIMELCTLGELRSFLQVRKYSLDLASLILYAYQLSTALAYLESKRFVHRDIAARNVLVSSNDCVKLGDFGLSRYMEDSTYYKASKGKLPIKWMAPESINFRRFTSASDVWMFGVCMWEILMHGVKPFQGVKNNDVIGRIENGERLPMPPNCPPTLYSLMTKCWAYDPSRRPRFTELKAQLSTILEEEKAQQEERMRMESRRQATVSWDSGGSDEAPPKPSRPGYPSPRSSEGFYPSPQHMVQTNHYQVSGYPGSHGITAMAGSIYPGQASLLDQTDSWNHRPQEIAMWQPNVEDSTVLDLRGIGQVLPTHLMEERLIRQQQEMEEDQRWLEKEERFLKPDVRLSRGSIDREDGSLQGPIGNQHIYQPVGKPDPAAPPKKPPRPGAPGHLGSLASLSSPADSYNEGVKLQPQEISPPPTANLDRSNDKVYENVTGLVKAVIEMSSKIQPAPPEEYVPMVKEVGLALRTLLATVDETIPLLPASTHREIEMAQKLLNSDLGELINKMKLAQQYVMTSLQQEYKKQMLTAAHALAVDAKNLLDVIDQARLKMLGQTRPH

## Fc1ccc(-c2[nH]c(/C=C/c3ccccc3)nc2-c2ccncc2)cc1
AKT1 (human)
  residual activity: 75%
AURKA (human)
  residual activity: 38%
AURKB (human)
  residual activity: 32%
AXL (human)
  residual activity: 61%
CDK2 CCNA2 (human)
  residual activity: 32%
CDK4 CCND1 (human)
  residual activity: 36%
CSNK2A1 (human)
  residual activity: 73%
EGFR (human)
  residual activity: 2%
EPHB4 (human)
  residual activity: 21%
ERBB2 (human)
  residual activity: 3%
IGF1R (human)
  residual activity: 16%
KDR (human)
  residual activity: 17%
MAP3K8 (human)
  residual activity: 35%
MAPK10 (human)
  residual activity: 11%
MAPK14 (human)
  residual activity: 0%
MET (human)
  residual activity: 25%
NUAK1 (human)
  residual activity: 45%
PDGFRB (human)
  residual activity: 34%
PLK1 (human)
  residual activity: 39%
PLK4 (human)
  residual activity: 5%
PTK2 (human)
  residual activity: 82%
SRC (human)
  residual activity: 8%
TEK (human)
  residual activity: 6%

## CSc1ccccc1CSc1nc(-c2ccncc2)c(-c2ccc(F)cc2)[nH]1
AKT1 (human)
  residual activity: 137%
AURKA (human)
  residual activity: 80%
AURKB (human)
  residual activity: 79%
AXL (human)
  residual activity: 85%
CDK2 CCNA2 (human)
  residual activity: 66%
CDK4 CCND1 (human)
  residual activity: 89%
CSNK2A1 (human)
  residual activity: 83%
EGFR (human)
  residual activity: 30%
EPHB4 (human)
  residual activity: 52%
ERBB2 (human)
  residual activity: 29%
IGF1R (human)
  residual activity: 60%
KDR (human)
  residual activity: 51%
MAP3K8 (human)
  residual activity: 85%
MAPK10 (human)
  residual activity: 58%
MAPK14 (human)
  residual activity: 10%
MET (human)
  residual activity: 76%
NUAK1 (human)
  residual activity: 95%
PDGFRB (human)
  residual activity: 85%
PLK1 (human)
  residual activity: 82%
PLK4 (human)
  residual activity: 59%
PTK2 (human)
  residual activity: 98%
SRC (human)
  residual activity: 29%
TEK (human)
  residual activity: 48%

## Oc1cccc(CSc2nc(-c3ccncc3)c(-c3ccc(F)cc3)[nH]2)c1
AKT1 (human)
  residual activity: 144%
AURKA (human)
  residual activity: 52%
AURKB (human)
  residual activity: 55%
AXL (human)
  residual activity: 76%
CDK2 CCNA2 (human)
  residual activity: 126%
CDK4 CCND1 (human)
  residual activity: 121%
CSNK2A1 (human)
  residual activity: 95%
EGFR (human)
  residual activity: 3%
EPHB4 (human)
  residual activity: 35%
ERBB2 (human)
  residual activity: 2%
IGF1R (human)
  residual activity: 79%
KDR (human)
  residual activity: 7%
MAP3K8 (human)
  residual activity: 91%
MAPK10 (human)
  residual activity: 17%
MAPK14 (human)
  residual activity: 2%
MET (human)
  residual activity: 58%
NUAK1 (human)
  residual activity: 121%
PDGFRB (human)
  residual activity: 35%
PLK1 (human)
  residual activity: 103%
PLK4 (human)
  residual activity: 42%
PTK2 (human)
  residual activity: 88%
SRC (human)
  residual activity: 12%
TEK (human)
  residual activity: 18%

## CSc1nc(-c2ccnc(NC(=O)C3CC3)c2)c(-c2ccc(F)cc2)n1C
AKT1 (human)
  residual activity: 121%
AURKA (human)
  residual activity: 31%
AURKB (human)
  residual activity: 47%
AXL (human)
  residual activity: 18%
CDK2 CCNA2 (human)
  residual activity: 234%
CDK4 CCND1 (human)
  residual activity: 109%
CSNK2A1 (human)
  residual activity: 89%
EGFR (human)
  residual activity: 11%
EPHB4 (human)
  residual activity: 9%
ERBB2 (human)
  residual activity: 17%
IGF1R (human)
  residual activity: 53%
KDR (human)
  residual activity: 2%
MAP3K8 (human)
  residual activity: 104%
MAPK10 (human)
  residual activity: 11%
MAPK14 (human)
  residual activity: 1%
MET (human)
  residual activity: 81%
NUAK1 (human)
  residual activity: 109%
PDGFRB (human)
  residual activity: 29%
PLK1 (human)
  residual activity: 114%
PLK4 (human)
  residual activity: 56%
PTK2 (human)
  residual activity: 53%
SRC (human)
  residual activity: 13%
TEK (human)
  residual activity: 8%

## CSc1nc(-c2ccnc(F)c2)c(-c2ccc(F)cc2)[nH]1
AKT1 (human)
  residual activity: 102%
AURKA (human)
  residual activity: 93%
AURKB (human)
  residual activity: 90%
AXL (human)
  residual activity: 101%
CDK2 CCNA2 (human)
  residual activity: 125%
CDK4 CCND1 (human)
  residual activity: 132%
CSNK2A1 (human)
  residual activity: 98%
EGFR (human)
  residual activity: 23%
EPHB4 (human)
  residual activity: 61%
ERBB2 (human)
  residual activity: 18%
IGF1R (human)
  residual activity: 96%
KDR (human)
  residual activity: 39%
MAP3K8 (human)
  residual activity: 105%
MAPK10 (human)
  residual activity: 48%
MAPK14 (human)
  residual activity: 2%
MET (human)
  residual activity: 91%
NUAK1 (human)
  residual activity: 105%
PDGFRB (human)
  residual activity: 81%
PLK1 (human)
  residual activity: 85%
PLK4 (human)
  residual activity: 76%
PTK2 (human)
  residual activity: 100%
SRC (human)
  residual activity: 60%
TEK (human)
  residual activity: 71%

## CSc1ccc(CSc2nc(-c3ccncc3)c(-c3ccc(F)cc3)[nH]2)cc1
AKT1 (human)
  residual activity: 100%
AURKA (human)
  residual activity: 79%
AURKB (human)
  residual activity: 71%
AXL (human)
  residual activity: 65%
CDK2 CCNA2 (human)
  residual activity: 42%
CDK4 CCND1 (human)
  residual activity: 84%
CSNK2A1 (human)
  residual activity: 76%
EGFR (human)
  residual activity: 36%
EPHB4 (human)
  residual activity: 40%
ERBB2 (human)
  residual activity: 25%
IGF1R (human)
  residual activity: 23%
KDR (human)
  residual activity: 33%
MAP3K8 (human)
  residual activity: 75%
MAPK10 (human)
  residual activity: 72%
MAPK14 (human)
  residual activity: 16%
MET (human)
  residual activity: 51%
NUAK1 (human)
  residual activity: 122%
PDGFRB (human)
  residual activity: 53%
PLK1 (human)
  residual activity: 115%
PLK4 (human)
  residual activity: 21%
PTK2 (human)
  residual activity: 130%
SRC (human)
  residual activity: 20%
TEK (human)
  residual activity: 21%

## CSc1nc(-c2ccnc(NC(=O)C3CCCC3)c2)c(-c2ccc(F)cc2)n1C
AKT1 (human)
  residual activity: 100%
AURKA (human)
  residual activity: 72%
AURKB (human)
  residual activity: 92%
AXL (human)
  residual activity: 62%
CDK2 CCNA2 (human)
  residual activity: 88%
CDK4 CCND1 (human)
  residual activity: 105%
CSNK2A1 (human)
  residual activity: 91%
EGFR (human)
  residual activity: 30%
EPHB4 (human)
  residual activity: 39%
ERBB2 (human)
  residual activity: 48%
IGF1R (human)
  residual activity: 53%
KDR (human)
  residual activity: 49%
MAP3K8 (human)
  residual activity: 88%
MAPK10 (human)
  residual activity: 16%
MAPK14 (human)
  residual activity: 3%
MET (human)
  residual activity: 91%
NUAK1 (human)
  residual activity: 100%
PDGFRB (human)
  residual activity: 65%
PLK1 (human)
  residual activity: 107%
PLK4 (human)
  residual activity: 46%
PTK2 (human)
  residual activity: 80%
SRC (human)
  residual activity: 43%
TEK (human)
  residual activity: 35%

## On1c(/C=C/c2ccccc2)nc(-c2ccncc2)c1-c1ccc(F)cc1
AKT1 (human)
  residual activity: 76%
AURKA (human)
  residual activity: 18%
AURKB (human)
  residual activity: 18%
AXL (human)
  residual activity: 42%
CDK2 CCNA2 (human)
  residual activity: 20%
CDK4 CCND1 (human)
  residual activity: 21%
CSNK2A1 (human)
  residual activity: 68%
EGFR (human)
  residual activity: 1%
EPHB4 (human)
  residual activity: 19%
ERBB2 (human)
  residual activity: 4%
IGF1R (human)
  residual activity: 13%
KDR (human)
  residual activity: 9%
MAP3K8 (human)
  residual activity: 48%
MAPK10 (human)
  residual activity: 9%
MAPK14 (human)
  residual activity: 3%
MET (human)
  residual activity: 23%
NUAK1 (human)
  residual activity: 51%
PDGFRB (human)
  residual activity: 31%
PLK1 (human)
  residual activity: 51%
PLK4 (human)
  residual activity: 7%
PTK2 (human)
  residual activity: 65%
SRC (human)
  residual activity: 5%
TEK (human)
  residual activity: 5%

## Fc1ccc(-c2[nH]c(SCc3ccccc3)nc2-c2ccnc(Cl)c2)cc1
AKT1 (human)
  residual activity: 75%
AURKA (human)
  residual activity: 62%
AURKB (human)
  residual activity: 47%
AXL (human)
  residual activity: 62%
CDK2 CCNA2 (human)
  residual activity: 43%
CDK4 CCND1 (human)
  residual activity: 48%
CSNK2A1 (human)
  residual activity: 95%
EGFR (human)
  residual activity: 7%
EPHB4 (human)
  residual activity: 42%
ERBB2 (human)
  residual activity: 9%
IGF1R (human)
  residual activity: 42%
KDR (human)
  residual activity: 38%
MAP3K8 (human)
  residual activity: 58%
MAPK10 (human)
  residual activity: 57%
MAPK14 (human)
  residual activity: 9%
MET (human)
  residual activity: 53%
NUAK1 (human)
  residual activity: 71%
PDGFRB (human)
  residual activity: 44%
PLK1 (human)
  residual activity: 60%
PLK4 (human)
  residual activity: 24%
PTK2 (human)
  residual activity: 120%
SRC (human)
  residual activity: 17%
TEK (human)
  residual activity: 16%

## Fc1ccc(-c2[nH]c(SCc3ccccc3)nc2-c2ccncc2)cc1
AKT1 (human)
  residual activity: 110%
AURKA (human)
  residual activity: 79%
AURKB (human)
  residual activity: 80%
AXL (human)
  residual activity: 82%
CDK2 CCNA2 (human)
  residual activity: 77%
CDK4 CCND1 (human)
  residual activity: 101%
CSNK2A1 (human)
  residual activity: 94%
EGFR (human)
  residual activity: 19%
EPHB4 (human)
  residual activity: 49%
ERBB2 (human)
  residual activity: 23%
IGF1R (human)
  residual activity: 72%
KDR (human)
  residual activity: 58%
MAP3K8 (human)
  residual activity: 76%
MAPK10 (human)
  residual activity: 41%
MAPK14 (human)
  residual activity: 3%
MET (human)
  residual activity: 89%
NUAK1 (human)
  residual activity: 93%
PDGFRB (human)
  residual activity: 76%
PLK1 (human)
  residual activity: 94%
PLK4 (human)
  residual activity: 71%
PTK2 (human)
  residual activity: 86%
SRC (human)
  residual activity: 42%
TEK (human)
  residual activity: 50%
